Measurements: paper PMC11599716, “Trapping of spermine, Kukoamine A, and polyamine toxin blockers in GluK2 kainate receptor channels” (Nature Communications, 2024)
Like-named read-outs stand apart in the source and are kept apart here.

Assays:
GluK2 kainate receptor [1] = molecular target: T1, GluK2 kainate receptor (Rattus norvegicus, UniProt P42260, I567V/Y571C); experiment: cryo-EM structure ([…] Å, with BPAM344); IC50 from whole-cell patch clamp in HEK293 cells; format: cell-based
T1 construct: gene Grik2; full-length rat GluK2 (GenBank CAA77778.1), V567, C571, Q621 (Q/R site unedited); LBD-TMD modelled (S429-R874); homotetramer

GluK2 kainate receptor [2] = molecular target: T1, GluK2 kainate receptor; experiment: as above; format: cell-based; remark: listed apart in the source
GluK2 kainate receptor [3] = molecular target: T2, GluK2 kainate receptor (Rattus norvegicus, UniProt P42260); experiment: whole-cell patch clamp in HEK293 cells expressing GluK2 (agonist, with ConA treatment); format: cell-based
T2 construct: gene Grik2; full-length rat GluK2, Q621 (Q/R site unedited), homotetramer

GluK2 kainate receptor [4] = molecular target: T1, GluK2 kainate receptor; experiment: cryo-EM structures (four BPAM344 molecules per tetramer in all four structures)
GluK2 kainate receptor [5] = molecular target: T1, GluK2 kainate receptor; experiment: cryo-EM structure ([…] Å, with BPAM344); IC50 from whole-cell patch clamp in HEK293 cells; format: cell-based; remark: listed apart in the source
GluK2 kainate receptor [6] = molecular target: T1, GluK2 kainate receptor; experiment: as above; format: cell-based; remark: listed apart in the source

T1 sequence (P42260 32-908 I567V/Y571C): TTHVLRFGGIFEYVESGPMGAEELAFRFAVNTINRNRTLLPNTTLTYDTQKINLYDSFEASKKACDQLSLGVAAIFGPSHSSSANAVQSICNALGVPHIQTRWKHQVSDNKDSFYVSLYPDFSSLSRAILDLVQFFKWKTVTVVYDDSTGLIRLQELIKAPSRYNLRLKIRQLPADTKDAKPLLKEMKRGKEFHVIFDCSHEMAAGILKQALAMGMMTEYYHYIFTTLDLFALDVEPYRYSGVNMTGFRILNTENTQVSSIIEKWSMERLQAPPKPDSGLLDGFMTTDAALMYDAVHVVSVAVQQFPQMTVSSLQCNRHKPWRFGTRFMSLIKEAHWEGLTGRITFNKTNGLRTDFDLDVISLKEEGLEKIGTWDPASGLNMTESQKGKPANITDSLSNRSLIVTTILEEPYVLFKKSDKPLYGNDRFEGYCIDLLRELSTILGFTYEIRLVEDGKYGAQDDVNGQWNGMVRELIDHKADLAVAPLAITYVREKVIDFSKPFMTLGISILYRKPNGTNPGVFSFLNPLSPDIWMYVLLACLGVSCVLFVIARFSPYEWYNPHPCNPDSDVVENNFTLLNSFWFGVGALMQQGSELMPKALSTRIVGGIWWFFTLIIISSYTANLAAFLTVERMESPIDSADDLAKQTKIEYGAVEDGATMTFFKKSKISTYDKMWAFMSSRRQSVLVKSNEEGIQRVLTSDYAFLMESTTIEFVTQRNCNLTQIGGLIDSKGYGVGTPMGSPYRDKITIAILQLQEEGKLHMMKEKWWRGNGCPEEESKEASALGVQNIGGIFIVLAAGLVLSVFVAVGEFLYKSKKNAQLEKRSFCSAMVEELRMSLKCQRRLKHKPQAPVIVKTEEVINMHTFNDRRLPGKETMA
T2 sequence (P42260 32-908): as the sequence (P42260 32-908 I567V/Y571C) above, with V536I, C540Y counted along it

NCCCNCCCCNCCCN [SPM, spermine]
IC50 (GluK2 kainate receptor [1]): 7770 ± 510 µM

NCCCNCCCCNCCC(=O)NCCCCCNC(=O)[C@@H](CC(N)=O)NC(=O)Cc1c[nH]c2ccccc12 [NpTx-8]
IC50 (GluK2 kainate receptor [2]): 0.51 ± 0.01 µM

C=C(C)[C@H]1CN[C@H](C(=O)O)[C@H]1CC(=O)O [KA, kainic acid]
whole-cell patch clamp in HEK293 cells expressing GluK2 (agonist, with ConA trea) (GluK2 kainate receptor [3]): the agonist kainic acid (KA) elicited large inward currents with a steady-state value of IControl

O=S1(=O)NCN(C2CC2)c2ccc(F)cc21 [BPAM, BPAM344]
cryo-EM structures (four BPAM344 molecules per tetramer in all four structures) (GluK2 kainate receptor [4]): improved map quality, with well-resolved densities for BPAM, carbohydrates, and annular lipids

O=C(CCc1ccc(O)c(O)c1)NCCCNCCCCNCCCNC(=O)CCc1ccc(O)c(O)c1 [KukoA, Kukoamine A]
IC50 (GluK2 kainate receptor [5]): 704 ± 31 µM

CCCC(=O)N[C@H](Cc1ccc(O)cc1)C(=O)NCCCCCCCNCCCCN [PhTx-74]
IC50 (GluK2 kainate receptor [6]): 7.53 ± 0.35 µM
